Laboratory results as given in US20240383874A1, “BENZENE RING DERIVATIVE, AND COMPOSITION AND PHARMACEUTICAL USE THEREOF” (Xizang Haisco Pharmaceutical Co., Ltd., priority 2020, published 2024).
pIC50: −log10 of the molar value. Where a name gives a salt, the structure may show the parent alone.

Test system: 22RV1 cells
Assay: Experiment 2 on inhibiting 22RV1 cell proliferation (7 days, CellTiter-Glo)
Format: cell-based
Conditions: Homo sapiens, 22Rv1, 168 h, 1% css-FBS phenol red-free medium, incubated with compound 7 days, read-out: IC50 values on proliferation inhibition of 22RV1 cells
Procedure, shortened: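 22RV1 cells plated at 2000/well in phenol red-free medium with 1% css-FBS and treated next day with compound for 7 days at 37 °C. Viability read by CellTiter-Glo luminescence relative to DMSO vehicle; IC50 from dose-response fit.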

Row | Structure (SMILES) | pIC50
1 | CC(C)(c1ccc(OCc2ccnc(N3CCC(CN4CCC5(CC4)CCN(c4ccc6c(c4)C(=O)N(C4CCC(=O)NC4=O)C6=O)CC5)CC3)n2)cc1)c1cc(Cl)cc(C#N)c1 (stereo not shown) [Compound 77 trifluoroacetate, 3-chloro-5-(2-(4-((2-(4-((9-(2-(2,6-dioxopiperidin-3-yl)-1,3-dioxoisoindolin-5-yl)-3,9-diazaspiro[5.5]undecan-3-yl)methyl)piperidin-1-yl)pyrimidin-4-yl)methoxy)phenyl)propan-2-yl)benzonitrile] | 6.72
2 | CC(C)(c1ccc(OCc2ccnc(N3CC4CN(C5CCN(C6CN(c7ccc8c(c7)C(=O)N(C7CCC(=O)NC7=O)C8=O)C6)CC5)CC4C3)n2)cc1)c1cc(Cl)cc(C#N)c1 (stereo not shown) [Compound 81 trifluoroacetate, 3-chloro-5-(2-(4-((2-(5-(1-(1-(2-(2,6-dioxopiperidin-3-yl)-1,3-dioxoisoindolin-5-yl)azetidin-3-yl)piperidin-4-yl)hexahydropyrrolo[3,4-c]pyrrol-2(1H)-yl)pyrimidin-4-yl)methoxy)phenyl)propan-2-yl)benzonitrile] | 6.32
3 | CC(C)(c1ccc(OCc2ccnc(N3CC4CN(C5CCN(CC6CCN(c7ccc8c(c7)C(=O)N(C7CCC(=O)NC7=O)C8=O)CC6)CC5)CC4C3)n2)cc1)c1cc(Cl)cc(C#N)c1 (stereo not shown) [Compound 82 trifluoroacetate, 3-chloro-5-(2-(4-((2-(5-(1-((1-(2-(2,6-dioxopiperidin-3-yl)-1,3-dioxoisoindolin-5-yl)piperidin-4-yl)methyl)piperidin-4-yl)hexahydropyrrolo[3,4-c]pyrrol-2(1H)-yl)pyrimidin-4-yl)methoxy)phenyl)propan-2-yl)benzonitrile] | 6.38
4 | CC(C)(c1ccc(OCc2ccnc(N3CC(CN4CCC5(CC4)CCN(c4ccc6c(c4)C(=O)N(C4CCC(=O)NC4=O)C6=O)CC5)C3)n2)cc1)c1cc(Cl)cc(C#N)c1 (stereo not shown) [Compound 87 trifluoroacetate, 3-chloro-5-(2-(4-((2-(3-((9-(2-(2,6-dioxopiperidin-3-yl)-1,3-dioxoisoindolin-5-yl)-3,9-diazaspiro[5.5]undecan-3-yl)methyl)azetidin-1-yl)pyrimidin-4-yl)methoxy)phenyl)propan-2-yl)benzonitrile] | 6.52

Continued by rising pIC50, values first:

Row | pIC50 | Structure (SMILES)
5 | 6.20 | Cn1c(=O)n(C2CCC(=O)NC2=O)c2ccc(C3CCN(C4CCN(CC5(F)CCN(c6nccc(COc7ccc(C(C)(C)c8cc(Cl)cc(C#N)c8)cc7)n6)CC5)CC4)CC3)cc21 (stereo not shown) [Compound 90 trifluoroacetate, 3-chloro-5-(2-(4-((2-(4-((4-(1-(2,6-dioxopiperidin-3-yl)-3-methyl-2-oxo-2,3-dihydro-1H-benzo[d]imidazol-5-yl)-[1,4′-bipiperidin]-1′-yl)methyl)-4-fluoropiperidin-1-yl)pyrimidin-4-yl)methoxy)phenyl)propan-2-yl)benzonitrile]
6 | 6.50 | Cn1c(=O)n(C2CCC(=O)NC2=O)c2cccc(N3CCC(C4CCN(CC5CCN(c6nccc(COc7ccc(C(C)(C)c8cc(Cl)cc(C#N)c8)cc7)n6)CC5)CC4)CC3)c21 (stereo not shown) [Compound 85 trifluoroacetate, 3-chloro-5-(2-(4-((2-(4-((1′-(1-(2,6-dioxopiperidin-3-yl)-3-methyl-2-oxo-2,3-dihydro-1H-benzo[d]imidazol-4-yl)-[4,4′-bipiperidin]-1-yl)methyl)piperidin-1-yl)pyrimidin-4-yl)methoxy)phenyl)propan-2-yl)benzonitrile]
7 | 6.56 | CC(C)(c1ccc(OCc2ccnc(N3CCC(CN4CCC5(CC4)CCN(c4ccc6c(c4)C(=O)N(C4CCC(=O)NC4=O)C6=O)CC5)C3)n2)cc1)c1cc(Cl)cc(C#N)c1 (stereo not shown) [Compound 86 trifluoroacetate, 3-chloro-5-(2-(4-((2-(3-((9-(2-(2,6-dioxopiperidin-3-yl)-1,3-dioxoisoindolin-5-yl)-3,9-diazaspiro[5.5]undecan-3-yl)methyl)pyrrolidin-1-yl)pyrimidin-4-yl)methoxy)phenyl)propan-2-yl)benzonitrile]
